Melting point data for 11 compounds are collected here from patent US20060189613A1, “Sulphonamide Compounds that Modulate Chemokine Receptor Activity (CCR4)” (priority 2003, published 2006).

Turning to `COc1ccnnc1NS(=O)(=O)c1cccc(Cl)c1Cl` [Example 1, 2,3-Dichloro-N-[4-methoxy-3-pyridazinyl]benzenesulphonamide], the melting point (as a rule, the temperature of the solid-liquid transition) fell in the range of 210 to 211 °C. To `COc1cc(Cl)nnc1NS(=O)(=O)c1cccc(Cl)c1Cl` [Example 2, 2,3-Dichloro-N-[6-chloro-4-methoxy-3-pyridazinyl]benzenesulphonamide] belongs 226 to 227 °C; to `O=S(=O)(Nc1nnc(Cl)cc1OCc1cccnc1)c1cccc(Cl)c1Cl` [Example 3, 2,3-Dichloro-N-[6-chloro-4-(3-pyridinylmethoxy)-3-pyridazinyl]benzenesulphonamide], 216 to 217 °C. The figure for `COc1ncc(NS(=O)(=O)c2cccc(Cl)c2Cl)c(OC)n1` [Example 5, 2,3-Dichloro-N-[2,4-dimethoxy-5-pyrimidinyl]benzenesulphonamide] is 124 to 126 °C; for `COc1ncncc1NS(=O)(=O)c1cccc(Cl)c1Cl` [Example 6, 2,3-Dichloro-N-[4-methoxy-5-pyrimidinyl]benzenesulphonamide] it is 204 to 211 °C; for `COc1cnc(Cl)nc1NS(=O)(=O)c1cccc(Cl)c1Cl` [Example 7, 2,3-Dichloro-N-[2-chloro-5-methoxy-4-pyrimidinyl]benzenesulphonamide] it is 244 to 245 °C. The figure for `COc1cncnc1NS(=O)(=O)c1cccc(Cl)c1Cl` [Example 8, 2,3-Dichloro-N-[5-methoxy-4-pyrimidinyl]benzenesulphonamide] is 278 to 279 °C. `COc1cnc(C(F)(F)F)nc1NS(=O)(=O)c1cccc(Cl)c1Cl` [Example 10, 2,3-Dichloro-N-[5-methoxy-2-trifluoromethyl-4-pyrimidinyl]benzenesulphonamide] returned a melting point of 190 to 191 °C.

Regarding `COc1cnc(Cl)nc1NS(=O)(=O)c1ccc(Cl)s1` [Example 11, 5-Chloro-thiophene-2-sulphonic acid, [2-chloro-5-methoxy-4-pyrimidinyl]amide], the melting point fell in the range of 201 to 202 °C. For `COc1cnc(C)nc1NS(=O)(=O)c1ccc(Cl)s1` [Example 12, 5-Chloro-thiophene-2-sulphonic acid, [5-methoxy-2-methyl-4-pyrimidinyl]amide], the melting point is 249 to 250 °C. The figure for `COc1cc(Cl)nnc1NS(=O)(=O)c1ccc(Cl)s1` [Example 13, 5-Chloro-N-[6-chloro-4-methoxy-3-pyridazinyl]thiophene-2-sulphonamide] is 120 to 122 °C.
